PubChem BioAssay AID248 (DTP/NCI, 2004)
“And” between values parts separate entries of the source, which are not always exact repeats. Equal entries are not always repeated. Inconclusive results and toxic doses are left out. Rule as the data show it: active = T/C of 150% or more; inactive = T/C below 125%.

System: L1210 leukemia ip in BDF1 mice, survival T/C
Experiment: NCI In Vivo Anticancer Drug Screen. Data for tumor model L1210 Leukemia (intraperitoneal) in B6D2F1 (BDF1) mice
Conditions: endpoint: mean survival time, higher = longer survival
How it was run: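 Transplantable tumor model; survival measured in treated vs vehicle control mice. Value = treated/control.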

[1] = dose: 100.0 mg/kg/injection, schedule: Q04DX003 (ip), vehicle: Klucel (hydroxypropylcellulose) (HPC)
[2] = dose: 100.0 mg/kg/injection, schedule: Q01DX001 (ip), vehicle: carboxymethylcellulose (CMC)
[3] = dose: 200.0 mg/kg/injection, schedule: Q01DX001 (ip), vehicle: carboxymethylcellulose (CMC)
[4] = dose: 400.0 mg/kg/injection, schedule: Q01DX001 (ip), vehicle: carboxymethylcellulose (CMC)
[5] = dose: 100.0 mg/kg/injection, schedule: Q04DX002 (ip), vehicle: Klucel (hydroxypropylcellulose) (HPC)
[6] = dose: 100.0 mg/kg/injection, schedule: Q01DX001 (ip), vehicle: saline
[7] = dose: 100.0 mg/kg/injection, schedule: Q01DX009 (ip), vehicle: saline
[8] = dose: 200.0 mg/kg/injection, schedule: Q01DX001 (ip), vehicle: saline
[9] = dose: 200.0 mg/kg/injection, schedule: Q01DX009 (ip), vehicle: saline
[10] = dose: 400.0 mg/kg/injection, schedule: Q01DX001 (ip), vehicle: saline
[11] = dose: 400.0 mg/kg/injection, schedule: Q01DX009 (ip), vehicle: saline
[12] = dose: 50.0 mg/kg/injection, schedule: Q01DX009 (ip), vehicle: saline with Tween-80
[13] = dose: 200.0 mg/kg/injection, schedule: Q04DX003 (ip), vehicle: Klucel (hydroxypropylcellulose) (HPC)
[14] = dose: 400.0 mg/kg/injection, schedule: Q04DX003 (ip), vehicle: Klucel (hydroxypropylcellulose) (HPC)
[15] = dose: 100.0 mg/kg/injection, schedule: Q04DX003 (ip), vehicle: saline
[16] = dose: 200.0 mg/kg/injection, schedule: Q04DX003 (ip), vehicle: saline
[17] = dose: 400.0 mg/kg/injection, schedule: Q04DX003 (ip), vehicle: saline

Measured: T/C

Cc1c(N)ccc2ccccc12
inactive: dose: 25.0 mg/kg/injection, schedule: Q04DX003 (ip), vehicle: Klucel (hydroxypropylcellulose) (HPC) 94 % of control | dose: 50.0 mg/kg/injection, schedule: Q04DX003 (ip), vehicle: Klucel (hydroxypropylcellulose) (HPC) 91 % of control | dose: 100.0 mg/kg/injection, schedule: Q01DX001 (ip), vehicle: other 103 % of control | [1] 91 % of control | dose: 200.0 mg/kg/injection, schedule: Q01DX001 (ip), vehicle: other 99 % of control | dose: 400.0 mg/kg/injection, schedule: Q01DX001 (ip), vehicle: other 97 % of control

CC1([N+](=O)[O-])COP(=O)(NCC2CCCO2)OC1 (centres undefined)
inactive: dose: 50.0 mg/kg/injection, schedule: Q01DX001 (ip), vehicle: carboxymethylcellulose (CMC) 98 % of control | [2] 104 % of control | [3] 104 % of control | [4] 93 % of control

CCC(=O)c1ccc(N2CCCCC2)cc1
inactive: [5] 103 % of control | dose: 200.0 mg/kg/injection, schedule: Q04DX002 (ip), vehicle: Klucel (hydroxypropylcellulose) (HPC) 89 % of control

O=C(NO)c1ccc(F)cc1
inactive: [2] 103 % of control | [3] 97 % of control | [4] 92 % of control

Cc1ccc(S(=O)(=O)C2=C(c3ccccc3)c3ccccc3CC2)cc1
inactive: [6] 101 % of control | [7] 93 % of control | dose: 100.0 mg/kg/injection, schedule: Q04DX003 (ip), vehicle: acetone 100 % of control | [8] 93 % of control | [9] 91 % of control | dose: 200.0 mg/kg/injection, schedule: Q04DX003 (ip), vehicle: acetone 102 % of control | [10] 95 % of control | [11] 93 % of control | dose: 400.0 mg/kg/injection, schedule: Q04DX003 (ip), vehicle: acetone 105 % of control

CC1=CC(=O)C(c2ccccc2)CC1 (centres undefined) (tested in a mixture with another compound)
inactive: [12] 96 % of control | dose: 100.0 mg/kg/injection, schedule: Q01DX009 (ip), vehicle: saline with Tween-80 96 % of control | dose: 200.0 mg/kg/injection, schedule: Q01DX009 (ip), vehicle: saline with Tween-80 96 % of control

Cc1cc2c(C(C)C)c(O)c(O)c(C=O)c2c(O)c1-c1c(C)cc2c(C(C)C)c(O)c(O)c(C=O)c2c1O
inactive: dose: 0.25 mg/kg/injection, schedule: Q01DX009 (ip), vehicle: saline 105 % of control | dose: 0.5 mg/kg/injection, schedule: Q01DX009 (ip), vehicle: saline 110 % of control | dose: 1.0 mg/kg/injection, schedule: Q01DX009 (ip), vehicle: saline 106 % of control | dose: 2.0 mg/kg/injection, schedule: Q01DX009 (ip), vehicle: saline 106 % of control | dose: 4.0 mg/kg/injection, schedule: Q01DX009 (ip), vehicle: saline 108 % of control | dose: 8.0 mg/kg/injection, schedule: Q01DX009 (ip), vehicle: saline 101 % of control

O=[N+]([O-])c1cc([N+](=O)[O-])c2nn(-c3ccccc3)[n+]([O-])c2c1
inactive: [1] 101 % of control | [13] 97 % of control | [14] 98 % of control

Cc1ccc(Cl)cc1NC(=O)NCCCl
inactive: [1] 113 % of control | [13] 93 % of control

COC1OC(COS(=O)OC)C(O)C(O)C1OS(=O)OC (centres undefined)
inactive: [2] 100 % of control | [3] 97 % of control | [4] 94 % of control

CC(C)NC=O
inactive: [6] 96 % of control | [8] 102 % of control | [10] 104 % of control

Nc1nccc2c1ncn2C1OC(CO)C(O)C1O (centres undefined)
inactive: dose: 100.0 mg/kg/injection, schedule: Q01DX005 (ip), vehicle: saline 108 % of control | dose: 200.0 mg/kg/injection, schedule: Q01DX005 (ip), vehicle: saline 109 % of control

Oc1ccc(Nc2ccccc2)cc1
inactive: [6] 92 % of control | [15] 101 % of control | [8] 110 % of control | [16] 101 % of control | [10] 105 % of control | [17] 95 % of control

C1CCC(SSC2CCCC2)C1
inactive: dose: 100.0 mg/kg/injection, schedule: Q04DX003 (ip), vehicle: saline with Tween-80 89 % of control | dose: 200.0 mg/kg/injection, schedule: Q04DX003 (ip), vehicle: saline with Tween-80 92 % of control | dose: 400.0 mg/kg/injection, schedule: Q04DX003 (ip), vehicle: saline with Tween-80 92 % of control

CCOC(=O)CCCCCCCCCCOc1ccc(C(C)=O)cc1
inactive: [1] 94 % of control | [13] 100 % of control | [14] 97 % of control

Cc1cc(C)c(CCO)c(C)c1
inactive: dose: 25.0 mg/kg/injection, schedule: Q01DX009 (ip), vehicle: DMSO 98 % of control | dose: 25.0 mg/kg/injection, schedule: Q04DX003 (ip), vehicle: DMSO 93 % of control | dose: 50.0 mg/kg/injection, schedule: Q01DX009 (ip), vehicle: DMSO 96 % of control | dose: 50.0 mg/kg/injection, schedule: Q04DX003 (ip), vehicle: DMSO 102 % of control | dose: 100.0 mg/kg/injection, schedule: Q04DX003 (ip), vehicle: DMSO 102 % of control

COn1c(=O)c2ccccc2n(C)c1=O
inactive: dose: 62.5 mg/kg/injection, schedule: Q01DX009 (ip), vehicle: other 96 % of control | dose: 125.0 mg/kg/injection, schedule: Q01DX009 (ip), vehicle: other 94 % of control | dose: 250.0 mg/kg/injection, schedule: Q01DX009 (ip), vehicle: other 98 % of control

NCC12CC3CC(CC(C3)C1)C2
inactive: dose: 25.0 mg/kg/injection, schedule: Q01DX009 (ip), vehicle: Klucel (hydroxypropylcellulose) (HPC) 107 % of control | dose: 25.0 mg/kg/injection, schedule: Q04DX002 (ip), vehicle: Klucel (hydroxypropylcellulose) (HPC) 111 % of control | dose: 50.0 mg/kg/injection, schedule: Q01DX009 (ip), vehicle: Klucel (hydroxypropylcellulose) (HPC) 93 % of control | dose: 50.0 mg/kg/injection, schedule: Q04DX002 (ip), vehicle: Klucel (hydroxypropylcellulose) (HPC) 107 % of control | dose: 100.0 mg/kg/injection, schedule: Q01DX009 (ip), vehicle: Klucel (hydroxypropylcellulose) (HPC) 90 % of control | [5] 96 % of control and 104 % of control

Cc1ccc(NC(=O)Nc2cc([N+](=O)[O-])ccc2C)cc1C
inactive: [1] 88 % of control | [13] 88 % of control | [14] 96 % of control

CN(C)C(=O)NCC[N+](C)(C)C
inactive: [7] 100 % of control | [15] 99 % of control | [9] 106 % of control | [16] 92 % of control | [11] 97 % of control | [17] 94 % of control

Cc1c(/C=C(\C#N)c2ccc([N+](=O)[O-])cc2)c(=O)n(-c2ccccc2)n1C
inactive: dose: 100.0 mg/kg/injection, schedule: Q01DX009 (ip), vehicle: gum acacia 93 % of control | dose: 100.0 mg/kg/injection, schedule: Q04DX003 (ip), vehicle: gum acacia 92 % of control | dose: 200.0 mg/kg/injection, schedule: Q01DX009 (ip), vehicle: gum acacia 90 % of control | dose: 200.0 mg/kg/injection, schedule: Q04DX003 (ip), vehicle: gum acacia 105 % of control | dose: 400.0 mg/kg/injection, schedule: Q01DX009 (ip), vehicle: gum acacia 89 % of control | dose: 400.0 mg/kg/injection, schedule: Q04DX003 (ip), vehicle: gum acacia 95 % of control

COC1C(c2ccccc2)NC(=O)C(Br)(C#N)C1c1ccccc1 (centres undefined)
inactive: dose: 12.5 mg/kg/injection, schedule: Q01DX009 (ip), vehicle: saline with Tween-80 86 % of control | dose: 25.0 mg/kg/injection, schedule: Q01DX009 (ip), vehicle: saline with Tween-80 86 % of control | [12] 86 % of control

CC1CCN1Cc1ccccc1 (centres undefined)
inactive: dose: 12.5 mg/kg/injection, schedule: Q04DX003 (ip), vehicle: acetone 98 % of control | dose: 25.0 mg/kg/injection, schedule: Q04DX003 (ip), vehicle: acetone 104 % of control | dose: 50.0 mg/kg/injection, schedule: Q04DX003 (ip), vehicle: acetone 104 % of control | dose: 75.0 mg/kg/injection, schedule: Q01DX009 (ip), vehicle: saline 94 % of control

CN(N)C(=S)c1ccc(Cl)cc1
inactive: dose: 50.0 mg/kg/injection, schedule: Q04DX003 (ip), vehicle: saline 102 % of control | [6] 95 % of control | [15] 100 % of control | [8] 93 % of control | [16] 96 % of control
